Where two headings read alike, the source gives them in different places. Ends that are not written are not given here.
Key:
[1] = physchem; format: physicochemical; conditions: buffer or solvent
Method: Adequate amounts of peptides 4, 12, 21, and 23 were fractionated via weighing and then dissolved in distilled water (Otsuka Distilled Water) adjusted at pH levels of 6.0 and 7.0 to bring the final concentration to 10 μg/ml. The resulting solutions were allowed to stand in an incubator at 55° C. (FC-610, Advantec) for 3 days, and reverse phase HPLC analysis was carried out (wavelength: 220 nm; mobile phase: acetonitrile (29.5%)/trifluoroacetic acid (0.1%); column: ODS-120T (Tosoh); column temperature: 25° C.) to examine the quantities of remaining peptides 4, 12, 21, and 23. […] This was particularly apparent at pH 7.0.

[2] = physchem; format: physicochemical; conditions: pH 7; for remaining at 240 h, 100 μg/ml / remaining at 480 h, 100 μg/ml / remaining at 720 h, 100 μg/ml: buffer or solvent
Method: Adequate amounts of peptides 4, 12, 21, and 23 were fractionated via weighing and then dissolved in distilled water (Otsuka Distilled Water) adjusted at the pH level of 7.0 to bring the final concentration to 100 μg/ml. The resulting solutions were allowed to stand in an incubator at 55° C. (FC-610, Advantec) for 0, 10, 20, and 30 days, respectively, and reverse phase HPLC analysis was carried out (wavelength: 220 nm; mobile phase: acetonitrile (29.5%)/trifluoroacetic acid (0.1%); column: ODS-120T (Tosoh); column temperature: 25° C.) to examine the amount of remaining peptides 4, 12, 21, and 23.

[3] = physchem; format: physicochemical; conditions: for remaining at 168 h, 100 μg/ml: buffer
Method: (§1) Adequate amounts of peptides 4, 12, 21, and 23 were fractionated via weighing and then dissolved in phosphate buffers (aqueous solution of 0.001% sodium dihydrogen phosphate) adjusted to pH levels of 6.0 and 7.0 to bring the final concentration to 100 μg/ml. The resulting solutions were allowed to stand in a thermo-hygrostat (LH-20-11, Nagano Kagaku) at 40° C. and 75% RH for a week, and reverse phase HPLC analysis was carried out (wavelength: 220 nm; mobile phase: acetonitrile (29.5%)/trifluoroacetic acid (0.1%); column: ODS-120T (Tosoh); column temperature: 25° C.) to examine the quantities of remaining peptides 4, 12, 21, and 23.

[4] = physchem; format: physicochemical; conditions: pH 7; for remaining at 240 h, 100 μg/ml / remaining at 480 h, 100 μg/ml / remaining at 720 h, 100 μg/ml: buffer
Method: as §1, with “phosphate buffer (an aqueous” for “phosphate buffers (aqueous”, “adjusted at the” for “adjusted to”, “pH level” for “pH levels”, “of” for “of 6.0 and”, “for 0, 10, 20, and 30 days,” for “for a week,”

[5] = test system: bronchial smooth muscle; assay: Relaxant effect on bronchial smooth muscle (carbachol-constricted trachea, Magnus tank); design: species or system Hartley male guinea pigs; conditions: carbachol (3×10^−7 M)-induced constriction; peptide 12 cumulative 10^−9 M to 3×10^−6 M, peptides 21 and 23 single 3×10^−6 M; isoproterenol 10^−6 M = 100% relaxation
[6] = test system: PC-12 cells; assay: Effect of inducing neurite formation; format: cell-based, rat; conditions: peptides 100 nM, cultured 3 days, compared to control without peptide and peptide 1
Method: Effect of peptides 1, 4, 12, 21, and 23 for inducing neurite formation were tested in the manner described below. PC-12 cells were cultured in Dulbecco's modified minimum essential medium (DMEM) containing 5% horse serum and 5% fetal calf serum in the presence of 5% CO2 and 95% air at 37° C. Cells were separated from the culture flask with the aid of trypsin, counted using a cytometer, and then the concentration was adjusted to 1.0×10^4 cells/ml. The cell-containing liquid medium was added to a Biocoat type IV collagen-coated 24-well dish in amounts of 1 ml each and then cultured in the presence of 5% CO2 and 95% air at 37° C. for 24 hours. The medium was replaced 24 hours later, and peptides (100 nM) were added at that time. The resultant was continuously cultured for 3 days and then photographed. […] The scale bar in each photograph represents 100 μm.

[7] = test system: PC12 cells; format: cell-based, rat
[8] = Stability of peptide 4 in distilled water, 40° C., 24 hours (reverse phase HPLC); format: physicochemical
Method: Peptide 4, a modified peptide, having a higher Arg content than wild-type VIP was weighed and fractionated to about 1 mg, the fractions were dissolved in distilled water adjusted to pH levels of 4.0, 5.0, 6.0, and 7.0 (Otsuka Distilled Water), and the final concentration was adjusted to 10 μg/ml. The resulting solutions were allowed to stand in an incubator at 40° C. (LH20-11M, Nagano Kagaku) for 24 hours, analysis was carried out via reverse phase HPLC (wavelength: 220 nm; mobile phase: 28% acetonitrile/0.1% trifluoroacetic acid; column: ODS-120T (Tosoh); column temperature: 25° C.), and the amount of remaining peptide 4 was examined.

[9] = test system: gastric constriction; assay: Inhibitory effect on gastric peristaltic movement (carbachol-constricted isolated stomach, Magnus tank); design: species or system ICR mice; conditions: test peptides 10^−6 M, carbachol 3×10^−6 M, 15 minutes after drug administration, level of peptide 9 (control drug) = 100
[10] = Helical content from circular dichroism spectra; format: physicochemical; conditions: 20 mM Tris-HCl buffer (pH 7.4), calculation by Greenfield et al.
Method: VIP (peptide 1, SEQ ID NO: 2), peptide 7 (SEQ ID NO: 8) corresponding to 25 residues at the N-terminus of VIP, and peptide 8 (SEQ ID NO: 9), which is a peptide 7 derivative with its methionine-17 being oxidized, were dissolved in a 20 mM Tris-HCl buffer (pH 7.4), and the circular dichroism spectra thereof were examined using the Jasco J-720 (Jasco Corporation). According to analytical calculation of higher-order structure by Greenfield et al., the helical content of peptide 1 was about 50% (FIG. 2).

| Substance | remaining at 72 h, 10 μg/ml ([1]; pH 6) [%] | remaining at 240 h, 100 μg/ml [2] [%] | remaining at 480 h, 100 μg/ml [2] [%] | remaining at 720 h, 100 μg/ml [2] [%] | stability (in words) [2] | remaining at 168 h, 100 μg/ml ([3]; pH 6) [%] | stability (in words) ([3]; pH 6) | remaining at 240 h, 100 μg/ml [4] [%] | remaining at 480 h, 100 μg/ml [4] [%] | remaining at 720 h, 100 μg/ml [4] [%] | effect of relaxing the trachea (in words) [5] | neurite formation (in words) [6] | neuroprotective effect, viable cell counts (in words) [7] | remaining at 72 h, 10 μg/ml ([1]; pH 7) [%] | remaining at 168 h, 100 μg/ml ([3]; pH 7) [%] | Level of constriction inhibition [9] | also measured |
| --- | --- | --- | --- | --- | --- | --- | --- | --- | --- | --- | --- | --- | --- | --- | --- | --- | --- |
| H-HSDAVFTANYTRLRRQLAVRRYLAAILGRR-NH2 [Peptide 23] | 100 | 62 | 42 | 30 | still remained 30 days later | 100 | significantly improved compared to that of peptide 4 | 98 | 89 | 73 | apparent peptide-addition-dependent effect of relaxing the trachea | significantly induced neurite formation | significantly higher than that of peptide 1 |  |  |  |  |
| H-HSDAVFTDNYTRLRRQLAVRRYLAAILGRR-NH2 [Peptide 12] | 94 | 49 | 34 | 18 | still remained 30 days later | 100 | significantly improved compared to that of peptide 4 | 84 | 86 | 73 | apparent peptide-addition-dependent effect of relaxing the trachea | significantly induced neurite formation | significantly higher than that of peptide 1 | 100 | 90 |  |  |
| H-HSDAVFTDNYTRLRRQLAVRRYLNSILNGRR-NH2 [Peptide 4, reference compound] |  | 0 | 0 | 0 | completely disappeared after storage for 10 days | 53 |  | 28 | 13 |  |  | significantly induced neurite formation | significantly higher than that of peptide 1 | 67 | 35 |  | remaining at 24 h ([8]; buffer or solvent, pH 5.0, distilled water, 10 μg/ml, 40° C., read-out: Amount of remaining peptide): 90%; peptide degradation (in words) ([8]; distilled water pH 4.0 to 7.0, 40° C.): peptide degradation was significant at around the neutral pH region; remaining at 24 h, 10 μg/ml ([8]; pH 4.0, distilled water, 10 μg/ml, 40° C., read-out: Amount of remaining peptide): 91%; remaining at 24 h, 10 μg/ml ([8]; pH 6.0, distilled water, 10 μg/ml, 40° C., read-out: Amount of remaining peptide): 93%; remaining at 24 h, 10 μg/ml ([8]; pH 7.0, distilled water, 10 μg/ml, 40° C., read-out: Amount of remaining peptide): 84%; stability (in words) [4]: disappeared 30 days later |
| H-HSDAVFTENYTRLRRQLAVRRYLAAILGRR-NH2 [Peptide 21] | 93 | 29 | 45 | 10 | still remained 30 days later | 100 | significantly improved compared to that of peptide 4 | 100 | 76 | 59 | apparent peptide-addition-dependent effect of relaxing the trachea | significantly induced neurite formation | significantly higher than that of peptide 1 | 100 | 87 |  |  |
| His-Ser-Asp-Ala-Val-Phe-Thr-Asp-Asn-Tyr-Thr-Arg-Leu-Arg-Arg-Gln-Leu-Ala-Val-Arg-Arg-Tyr-Leu-NH2 (HSDAVFTDNYTRLRRQLAVRRYL-NH2) [Peptide 10] |  |  |  |  |  |  |  |  |  |  |  |  |  |  |  | 227 |  |
| His-Ser-Asp-Ala-Val-Phe-Thr-Asp-Asn-Tyr-Thr-Arg-Leu-Arg-Lys-Gln-Leu-Ala-Val-Lys-Lys-Tyr-Leu-NH2 (HSDAVFTDNYTRLRKQLAVKKYL-NH2) [Peptide 9, reference compound] |  |  |  |  |  |  |  |  |  |  |  |  |  |  |  | 100 |  |
| His-Ser-Asp-Ala-Val-Phe-Thr-Asp-Asn-Tyr-Thr-Arg-Leu-Arg-Lys-Gln-Met-Ala-Val-Lys-Lys-Tyr-Leu-Asn-Ser-Ile-Leu-Asn-NH2 [Peptide 1, reference compound] |  |  |  |  |  |  |  |  |  |  |  |  | significant neuroprotective effects |  |  |  | helical content [10]: about 50% |
| His-Ser-Asp-Ala-Val-Phe-Thr-Asp-Asn-Tyr-Thr-Arg-Leu-Arg-Lys-Gln-Met-Ala-Val-Lys-Lys-Tyr-Leu-Asn-Ser-NH2 (HSDAVFTDNYTRLRKQMAVKKYLNS-NH2) [Peptide 7, corresponding to 25 residues at the N-terminus of VIP] |  |  |  |  |  |  |  |  |  |  |  |  |  |  |  |  | helical content [10]: would retain a good deal of such higher-order structure |
| His-Ser-Asp-Gly-Ile-Phe-Thr-Asp-Ser-Tyr-Ser-Arg-Tyr-Arg-Arg-Gln-Leu-Ala-Val-Arg-Arg-Tyr-Leu-NH2 (HSDGIFTDSYSRYRRQLAVRRYL-NH2) [Peptide 33] |  |  |  |  |  |  |  |  |  |  |  |  |  |  |  | 160 |  |
